Source: patent publication US9981916B2 (Genentech, Inc., priority 2013, dated 2018)

Target: T1, RORc ligand binding domain (Homo sapiens, UniProt P51449)
T1 construct: host or cells: E. coli
T1 sequence (P51449 269-508 limits assumed): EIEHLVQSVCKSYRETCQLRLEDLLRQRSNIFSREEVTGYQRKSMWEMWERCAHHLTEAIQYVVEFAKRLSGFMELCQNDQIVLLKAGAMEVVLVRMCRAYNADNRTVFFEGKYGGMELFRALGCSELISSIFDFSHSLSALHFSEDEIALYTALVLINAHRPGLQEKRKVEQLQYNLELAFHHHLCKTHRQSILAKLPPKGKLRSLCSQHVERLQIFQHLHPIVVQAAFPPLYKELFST
Experiment: In vitro RORc ligand binding assay (25-[3H]hydroxycholesterol displacement, filter binding)
Conditions: 6 nM 25-[3H]hydroxycholesterol, 0.6 ug/mL RORc receptor, 3 h at 25° C.
In short: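 Compounds in 5% DMSO, either dose-response or screened at 1 and 10 uM, competed with 6 nM 25-[3H]hydroxycholesterol for 0.6 ug/mL RORc over 3 h at 25° C (HEPES pH 7.4, NaCl, MgCl2, DTT, BSA buffer). Bound tracer was filter-harvested and counted; nonspecific binding came from 1 uM 25-hydroxycholesterol.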

CC1(C)[C@H]2CC[C@]1(c1ccccn1)c1nnc(-c3c(F)cccc3F)cc12 [Example 153]
IC50: 24 nM

CC1(C)[C@H]2CC[C@]1(c1cccnc1)c1nnc(-c3c(F)cccc3F)cc12 [Example 154, (5R,8S)-3-(2,6-difluorophenyl)-9,9-dimethyl-8-(pyridin-3-yl)-5,6,7,8-tetrahydro-5,8-methanocinnoline]
IC50: 23 nM

Cc1nnc(N(CCO)C[C@@]23CC[C@@H](c4cc(-c5c(F)cccc5F)nnc42)C3(C)C)o1 [Example 155, 2-((((5R,8S)-3-(2,6-difluorophenyl)-9,9-dimethyl-5,6,7,8-tetrahydro-5,8-methanocinnolin-8-yl)methyl)(5-methyl-1,3,4-oxadiazol-2-yl)amino)ethanol]
IC50: 67 nM

CCN(C[C@@]12CC[C@@H](c3cc(-c4c(F)cccc4F)nnc31)C2(C)C)S(C)(=O)=O [Example 156, N-(((5R,8S)-3-(2,6-difluorophenyl)-9,9-dimethyl-5,6,7,8-tetrahydro-5,8-methanocinnolin-8-yl)methyl)-N-ethylmethanesulfonamide]
IC50: 46 nM

CCN(C[C@@]12CC[C@@H](c3cc(-c4c(F)cccc4F)nnc31)C2(C)C)C(C)=O [Example 157, N-(((5R,8S)-3-(2,6-difluorophenyl)-9,9-dimethyl-5,6,7,8-tetrahydro-5,8-methanocinnolin-8-yl)methyl)-N-ethylacetamide]
IC50: 19 nM

CCN(C[C@@]12CC[C@@H](c3cc(-c4c(F)cccc4F)nnc31)C2(C)C)C(=O)c1cc(C)on1 [Example 158, N-(((5R,8S)-3-(2,6-difluorophenyl)-9,9-dimethyl-5,6,7,8-tetrahydro-5,8-methanocinnolin-8-yl)methyl)-N-ethyl-5-methylisoxazole-3-carboxamide]
IC50: 6 nM

CCN(C[C@@]12CC[C@@H](c3cc(-c4c(F)cccc4F)nnc31)C2(C)C)C(N)=O [Example 159, 1-(((5R,8S)-3-(2,6-difluorophenyl)-9,9-dimethyl-5,6,7,8-tetrahydro-5,8-methanocinnolin-8-yl)methyl)-1-ethylurea]
IC50: 26 nM

CCN(C[C@@]12CC[C@@H](c3cc(-c4c(F)cccc4F)nnc31)C2(C)C)C(=O)CC#N [Example 160, 2-cyano-N-(((5R,8S)-3-(2,6-difluorophenyl)-9,9-dimethyl-5,6,7,8-tetrahydro-5,8-methanocinnolin-8-yl)methyl)-N-ethylacetamide]
IC50: 27 nM

CC1(C)[C@H]2CC[C@]1(c1cnccn1)c1nnc(-c3c(F)cccc3F)cc12 [Example 161]
IC50: 90 nM

CCN(C[C@@]12CC[C@@H](c3cc(-c4c(F)cccc4F)nnc31)C2(C)C)C(=O)CO [Example 162, N-(((5R,8S)-3-(2,6-difluorophenyl)-9,9-dimethyl-5,6,7,8-tetrahydro-5,8-methanocinnolin-8-yl)methyl)-N-ethyl-2-hydroxyacetamide]
IC50: 8 nM

CCN(C[C@@]12CC[C@@H](c3cc(-c4c(F)cccc4F)nnc31)C2(C)C)c1ccccn1 [Example 163, N-(((5R,8S)-3-(2,6-difluorophenyl)-9,9-dimethyl-5,6,7,8-tetrahydro-5,8-methanocinnolin-8-yl)methyl)-N-ethylpyridin-2-amine]
IC50: 6 nM

CCN(C[C@@]12CC[C@@H](c3cc(-c4c(F)cccc4F)nnc31)C2(C)C)c1ncccn1 [Example 164, N-(((5R,8S)-3-(2,6-difluorophenyl)-9,9-dimethyl-5,6,7,8-tetrahydro-5,8-methanocinnolin-8-yl)methyl)-N-ethylpyrimidin-2-amine]
IC50: 4 nM

Cn1c([C@@]23CC[C@@H](c4cc(-c5c(F)cccc5F)nnc42)C3(C)C)cccc1=O [Example 165, 6-((5R,8S)-3-(2,6-difluorophenyl)-9,9-dimethyl-5,6,7,8-tetrahydro-5,8-methanocinnolin-8-yl)-1-methylpyridin-2(1H)-one]
IC50: 8 nM

Cc1nnc(N(CC(F)F)C[C@@]23CC[C@@H](c4cc(-c5c(F)cccc5F)nnc42)C3(C)C)o1 [Example 166, N-(2,2-difluoroethyl)-N-(((5R,8S)-3-(2,6-difluorophenyl)-9,9-dimethyl-5,6,7,8-tetrahydro-5,8-methanocinnolin-8-yl)methyl)-5-methyl-1,3,4-oxadiazol-2-amine]
IC50: 9 nM

CC(C)(C)OC(=O)NCCC1CN(C(=O)[C@]23CC[C@H](c4cc(-c5c(F)cccc5F)nnc42)C3(C)C)C1 [Example 168, tert-butyl (2-(1-((5S,8S)-3-(2,6-difluorophenyl)-9,9-dimethyl-5,6,7,8-tetrahydro-5,8-methanocinnoline-8-carbonyl)azetidin-3-yl)ethyl)carbamate]
IC50: 2970 nM

CC1(C)[C@H]2CC[C@]1(C(=O)Nc1ccccc1C#N)c1nnc(-c3ccccc3F)cc12 [Example 171, (5R,8R)-N-(2-cyanophenyl)-3-(2-fluorophenyl)-9,9-dimethyl-5,6,7,8-tetrahydro-5,8-methanocinnoline-8-carboxamide]
IC50: 3380 nM

CC1(C)[C@H]2CC[C@]1(C(=O)N1CC(F)(F)C1)c1nnc(-c3ccccc3F)cc12 [Example 172, (3,3-difluoroazetidin-1-yl)((5R,8R)-3-(2-fluorophenyl)-9,9-dimethyl-5,6,7,8-tetrahydro-5,8-methanocinnolin-8-yl)methanone]
IC50: 1410 nM

COC1CCN(C(=O)[C@@]23CC[C@@H](c4cc(-c5ccccc5F)nnc42)C3(C)C)CC1 [Example 173, ((5R,8R)-3-(2-fluorophenyl)-9,9-dimethyl-5,6,7,8-tetrahydro-5,8-methanocinnolin-8-yl)(4-methoxypiperidin-1-yl)methanone]
IC50: 2470 nM

CC(C)(C#N)NC(=O)[C@@]12CC[C@@H](c3cc(-c4ccccc4F)nnc31)C2(C)C [Example 174, (5R,8R)-N-(2-cyanopropan-2-yl)-3-(2-fluorophenyl)-9,9-dimethyl-5,6,7,8-tetrahydro-5,8-methanocinnoline-8-carboxamide]
IC50: 3080 nM

CC1(C)[C@H]2CC[C@]1(C(=O)NC1CCCC1)c1nnc(-c3ccccc3F)cc12 [Example 175, (5R,8R)-N-cyclopentyl-3-(2-fluorophenyl)-9,9-dimethyl-5,6,7,8-tetrahydro-5,8-methanocinnoline-8-carboxamide]
IC50: 1160 nM

CC1(C)[C@H]2CC[C@]1(C(=O)NCCO)c1nnc(-c3ccccc3F)cc12 [Example 176, (5R,8R)-3-(2-fluorophenyl)-N-(2-hydroxyethyl)-9,9-dimethyl-5,6,7,8-tetrahydro-5,8-methanocinnoline-8-carboxamide]
IC50: 2670 nM

CC1(C)[C@H]2CC[C@]1(C(=O)NC1CCC1)c1nnc(-c3ccccc3F)cc12 [Example 177, (5R,8R)-N-cyclobutyl-3-(2-fluorophenyl)-9,9-dimethyl-5,6,7,8-tetrahydro-5,8-methanocinnoline-8-carboxamide]
IC50: 1500 nM

CNC(=O)[C@@]12CC[C@@H](c3cc(-c4ccccc4F)nnc31)C2(C)C [Example 178, (5R,8R)-3-(2-fluorophenyl)-N,9,9-trimethyl-5,6,7,8-tetrahydro-5,8-methanocinnoline-8-carboxamide]
IC50: 2050 nM

Cc1c[nH]nc1C1CN(C(=O)[C@@]23CC[C@@H](c4cc(-c5ccccc5F)nnc42)C3(C)C)C1 [Example 179, ((5R,8R)-3-(2-fluorophenyl)-9,9-dimethyl-5,6,7,8-tetrahydro-5,8-methanocinnolin-8-yl)(3-(4-methyl-1H-pyrazol-3-yl)azetidin-1-yl)methanone]
IC50: 2810 nM

CNC(=O)C1CN(C(=O)[C@@]23CC[C@@H](c4cc(-c5ccccc5F)nnc42)C3(C)C)CCO1 (stereo partly drawn) [Example 180, 4-((5R,8R)-3-(2-fluorophenyl)-9,9-dimethyl-5,6,7,8-tetrahydro-5,8-methanocinnoline-8-carbonyl)-N-methylmorpholine-2-carboxamide]
IC50: 3810 nM

Cc1ccnc(C2CN(C(=O)[C@@]34CC[C@@H](c5cc(-c6ccccc6F)nnc53)C4(C)C)C2)n1 [Example 181, ((5R,8R)-3-(2-fluorophenyl)-9,9-dimethyl-5,6,7,8-tetrahydro-5,8-methanocinnolin-8-yl)(3-(4-methylpyrimidin-2-yl)azetidin-1-yl)methanone]
IC50: 2750 nM

CC1(C)[C@H]2CC[C@]1(C(=O)N1CC(c3cc[nH]n3)C1)c1nnc(-c3ccccc3F)cc12 [Example 182, (3-(1H-pyrazol-3-yl)azetidin-1-yl)((5R,8R)-3-(2-fluorophenyl)-9,9-dimethyl-5,6,7,8-tetrahydro-5,8-methanocinnolin-8-yl)methanone]
IC50: 3000 nM

CC(NC(=O)[C@@]12CC[C@@H](c3cc(-c4ccccc4F)nnc31)C2(C)C)c1ccccc1 (stereo partly drawn) [Example 183, (5R,8R)-3-(2-fluorophenyl)-9,9-dimethyl-N-(1-phenylethyl)-5,6,7,8-tetrahydro-5,8-methanocinnoline-8-carboxamide]
IC50: 1000 nM

CC1(C)[C@H]2CC[C@]1(N1CCNC1=O)c1nnc(-c3c(F)cccc3F)cc12 [Example 184, 1-((5R,8R)-3-(2,6-difluorophenyl)-9,9-dimethyl-5,6,7,8-tetrahydro-5,8-methanocinnolin-8-yl)imidazolidin-2-one]
IC50: 171 nM

CC1(C)[C@H]2CC[C@]1(c1ncn[nH]1)c1nnc(-c3c(F)cccc3F)cc12 [Example 185, (5R,8R)-3-(2,6-difluorophenyl)-9,9-dimethyl-8-(1H-1,2,4-triazol-5-yl)-5,6,7,8-tetrahydro-5,8-methanocinnoline]
IC50: 2200 nM

Cn1ccc([C@@]23CC[C@@H](c4cc(-c5c(F)cccc5F)nnc42)C3(C)C)n1 [Example 186]
IC50: 152 nM
